Results published in patent US12053522B2, “Pro-inflammatory and anti-cancer functions of toll-like receptor 4 antagonists” (Children's Medical Center Corporation, priority 2015, dated 2024).
Each block holds one molecule with its values, some of them ahead of it.

Assays:
DCs = assay: TNFα secretion from DCs (ELISA); assay type: cell-based, mouse; details: LPS-primed DCs
Excerpt: C57BL/6J (Jax 000664), C57BL/6NJ (Jax 005304), CD14 KO (Jax 003726), caspase-1/-11 dKO mice (Jax 016621), TLR4-mutant (C3H/HeJ, Jax 000659), and wild-type control for TLR4-mutant (C3H/HeSNJ, Jax 000661) were purchased from Jackson Labs. NLRP3 KO and ASC KO mice were kindly provided by Dr. T. Horng, Harvard School of Public Health. Caspase-11 KO mice were kindly provided by Dr. Junying Yuan, Harvard Medical School. Caspase-1 single KO mice were kindly provided by Thirumala-Devi Kanneganti (St. Judes). DCs were differentiated from bone marrow in IMDM (Gibco), 10% B16-GM-CSF derived supernatant, 2 μM 2-mercaptoethanol and 10% FBS and used after 6 day of culture. DC purity was assessed by flow cytometry and was usually higher than 90%. MO were differentiated from bone marrow in DMEM (Gibco), 30% L929 supernatant, and 10% FBS. Immortal MΦs were cultured in DMEM supplemented with 10% L929 supernatant and 10% FBS. Splenic DCs were purified as described previously (Zanoni et al., 2012). Prior to stimulations, cultured cells were washed and re-plated in DMEM supplemented with 10% FBS at a concentration of 1×10^6 cells/ml in a final volume of 100 μl. For experiments using pan-caspase inhibitor, cells were treated with zVADfmk (20 μM) 30 min before inflammasome activation stimuli addition. […]
RNA was isolated from cell cultures using Qiashedder (Qiagen) and GeneJET RNA Purification Kit (Life Technologies). Purified RNA was analyzed for gene expression on a CFX384 real time cycler (Bio-rad) using TaqMan RNA-to-CT 1-Step Kit (Applied Biosystems) with probes purchased from Life Technologies specific for viperin (Mm00491265_m1), IFNb1 (Mm00439552_s1), IL6 (Mm00446190_m1), caspase-1 (Mm00438023_m1), caspase-11 (Mm00432307_m1), Nlrp3 (Mm00840904_m1), Asc (Mm00445747_g1), TBP (Mm00446971_m1) or GAPDH (Mm99999915_g1). ELISA for IL-1β, IL-2, IL-17, IL-18, TNFα and IFNγ were performed using Mouse Ready-SET-Go ELISA kits (eBioscience). […] Cell associated cytokines were measured as follows: 96-well plates were centrifuged and supernatant was discarded. […]

[1] = target: T1, catalytic mutant caspase-11 full length (C254A) (Mus musculus, UniProt P70343, C254A); assay: SPR analysis of lipid binding to immobilized full length caspase-11 (C254A)
T1 construct: recombinant catalytic mutant caspase-11 full length (C254A); His; made in house; host or cells: SF-21 insect cells (baculovirus)
T1 sequence (P70343 81-373 C254A): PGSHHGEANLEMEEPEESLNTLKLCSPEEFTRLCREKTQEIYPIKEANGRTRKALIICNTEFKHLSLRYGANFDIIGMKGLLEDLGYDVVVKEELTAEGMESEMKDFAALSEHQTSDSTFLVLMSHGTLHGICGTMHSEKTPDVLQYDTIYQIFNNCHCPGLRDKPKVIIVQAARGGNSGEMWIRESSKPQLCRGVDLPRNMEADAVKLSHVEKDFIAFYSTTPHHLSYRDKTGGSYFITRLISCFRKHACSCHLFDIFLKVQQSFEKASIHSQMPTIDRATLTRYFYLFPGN
Procedure: For studies to measure the direct binding of oxPAPC to caspase-11, proteins and SPR analysis was performed as described (Shi, J., et al., (2014b) Nature). Briefly, the recombinant catalytic mutant caspase-11 full length (C254A) and caspase-11 ΔN59 (C254A) were purified from P3 baculovirus infected SF-21 insect cells that were cultured in Sf900™ II SFM for 72 h at 28° C. Cells were lysed in lysis buffer containing 1% Triton X-100, 50 mM Tris-HCl (pH 7.6), 300 mM NaCl, 50 mM imidazole and 5 mM 2-mercaptoethanol. Ni-NTA beads (Qiagen) were used to purify His-tagged proteins from lysates. Proteins were released from the beads with elution buffer containing 50 mM Tris-HCl (pH 7.6), 250 mM imidazole and 300 mM NaCl. Imidazole was removed by dialysis. The proteins were further purified with HiTrap Q column and Superdex G200 column (GE Healthcare Life Sciences) to reach high homogeneity.
For surface plasmon resonance (SPR) analysis, BIAcore T100 SPR instrument (GE Healthcare) was used to measure the ligand binding kinetics. The assays were performed in a buffer containing 150 mM NaCl, 3 mM EDTA, 50 mM HEPES (pH 7.5) and 0.005% Tween-20 at 25° C. […] The KD values were calculated by fitting result curves (subtracted the control flow cell value) to a 1:1 Langmuir binding model with the BIAcore T100 evaluation software.

bone marrow derived DCs = assay: IL-1β release from DCs (ELISA); assay type: cell-based, mouse; details: for IL-1β release: LPS-primed DCs
Procedure: NLRP3 KO and ASC KO mice were kindly provided by Dr. T. Horng, Harvard School of Public Health. Caspase-11 KO mice were kindly provided by Dr. Junying Yuan, Harvard Medical School. Caspase-1 single KO mice were kindly provided by Thirumala-Devi Kanneganti (St. Judes). DCs were differentiated from bone marrow in IMDM (Gibco), 10% B16-GM-CSF derived supernatant, 2 μM 2-mercaptoethanol and 10% FBS and used after 6 day of culture. […] MO were differentiated from bone marrow in DMEM (Gibco), 30% L929 supernatant, and 10% FBS. Immortal MΦs were cultured in DMEM supplemented with 10% L929 supernatant and 10% FBS. […] For experiments using pan-caspase inhibitor, cells were treated with zVADfmk (20 μM) 30 min before inflammasome activation stimuli addition. Cycloheximide (50 ng/ml) was added at the time of stimuli administration. Transfection with DOTAP was performed following the manufacturer instructions. […] 30 min later, the DOTAP/LPS or DOTAP/oxPAPC complex were added to the culture.
RNA was isolated from cell cultures using Qiashedder (Qiagen) and GeneJET RNA Purification Kit (Life Technologies). Purified RNA was analyzed for gene expression on a CFX384 real time cycler (Bio-rad) using TaqMan RNA-to-CT 1-Step Kit (Applied Biosystems) with probes purchased from Life Technologies specific for viperin (Mm00491265_m1), IFNb1 (Mm00439552_s1), IL6 (Mm00446190_m1), caspase-1 (Mm00438023_m1), caspase-11 (Mm00432307_m1), Nlrp3 (Mm00840904_m1), Asc (Mm00445747_g1), TBP (Mm00446971_m1) or GAPDH (Mm99999915_g1). ELISA for IL-1β, IL-2, IL-17, IL-18, TNFα and IFNγ were performed using Mouse Ready-SET-Go ELISA kits (eBioscience). To measure secreted cytokines, supernatant were collected, clarified by centrifugation and stored at −20° C. Cell associated cytokines were measured as follows: 96-well plates were centrifuged and supernatant was discarded. 250 μl of PBS were added to each well. Cells were frozen and thawed two times at −80° C. and then stored at −20° C. for further analysis.

inflammasome in DCs = assay: Inflammasome activation (FIGS. 6-42); assay type: cell-based
TLR4 = target: T2, TLR4 (Mus musculus, UniProt Q9JHF9+Q9QUK6); assay: TLR4 endocytosis (surface staining, flow cytometry); assay type: cell-based; details: cycloheximide treatment
T2 construct: endogenous in cells; host or cells: iMΦ, primary bone marrow derived MΦ and DCs
T2 sequence (Q9QUK6 26-835): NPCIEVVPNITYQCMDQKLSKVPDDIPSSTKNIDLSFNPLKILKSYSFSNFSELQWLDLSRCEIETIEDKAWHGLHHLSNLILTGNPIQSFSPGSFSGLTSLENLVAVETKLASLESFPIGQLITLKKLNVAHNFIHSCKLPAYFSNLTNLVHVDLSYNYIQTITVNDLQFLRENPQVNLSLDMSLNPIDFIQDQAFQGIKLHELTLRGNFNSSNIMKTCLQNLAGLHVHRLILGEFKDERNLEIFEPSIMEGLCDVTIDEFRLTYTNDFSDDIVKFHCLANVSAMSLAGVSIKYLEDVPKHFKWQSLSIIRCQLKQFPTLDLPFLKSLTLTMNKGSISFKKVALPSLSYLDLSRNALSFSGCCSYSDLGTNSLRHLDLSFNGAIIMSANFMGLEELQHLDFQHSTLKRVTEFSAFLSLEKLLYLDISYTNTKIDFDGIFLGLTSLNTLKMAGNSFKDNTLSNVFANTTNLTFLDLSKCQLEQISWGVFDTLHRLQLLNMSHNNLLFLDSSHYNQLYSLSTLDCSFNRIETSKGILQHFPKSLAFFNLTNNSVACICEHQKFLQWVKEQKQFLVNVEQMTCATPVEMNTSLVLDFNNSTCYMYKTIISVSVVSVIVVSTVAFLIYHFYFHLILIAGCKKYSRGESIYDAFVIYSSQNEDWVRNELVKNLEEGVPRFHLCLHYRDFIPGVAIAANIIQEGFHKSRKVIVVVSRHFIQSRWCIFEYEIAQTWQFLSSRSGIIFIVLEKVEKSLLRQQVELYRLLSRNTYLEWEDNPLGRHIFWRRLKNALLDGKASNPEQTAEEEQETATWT
T2 sequence (Q9JHF9 19-160): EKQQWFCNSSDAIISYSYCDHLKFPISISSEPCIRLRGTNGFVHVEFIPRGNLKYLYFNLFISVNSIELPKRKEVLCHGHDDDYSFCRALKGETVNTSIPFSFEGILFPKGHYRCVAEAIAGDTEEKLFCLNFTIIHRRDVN
Procedure: (§1) primary bone marrow derived MΦs and DCs or splenic DCs (0.5×10^6) of the indicated genotypes were treated with E. coli LPS, oxPAPC or chemical inhibitors for the indicated time points at 37° C. Cells were then washed with 1 mL cold PBS and stained for appropriate antibodies on ice for 20 to 30 minutes. 2% mouse serum or rat serum were used as the blocking reagent to reduce non-specific binding of the antibodies. The stained cells were then washed with 1 mL cold PBS and resuspended in 200 μL PBS. Staining of the surface receptors was analyzed with BD FACSCanto II. The mean fluorescence intensity (MFI) of CD14, TLR4 from unstimulated or stimulated cells was recorded. The percentage of surface receptor staining at indicated time points, which is the ratio of the MFI values measured from the stimulated cells to those measured from the unstimulated cells, was plotted to reflect the efficiency of receptor endocytosis. For measuring the extent of TLR4/MD-2 dimerization, the percentage of TLR4/MD2 dimer was calculated by 100%−the percentage of TLR4/MD-2 monomer. The percentage of the TLR4/MD-2 monomer was determined by the ratio of the MFI values (obtained from MTS510 antibody staining) of the stimulated cells to those of the unstimulated cells were indicated. Cells were stained with anti-MHC class II or anti-CD40 antibodies.

CD14 = target: T3, CD14 (Mus musculus, UniProt P10810); assay: CD14 endocytosis (surface staining, flow cytometry); assay type: cell-based; details: protein synthesis blocked with cycloheximide
T3 construct: endogenous in cells; host or cells: iMΦ, primary bone marrow derived MΦ and DCs
T3 sequence (P10810 16-336 limits assumed): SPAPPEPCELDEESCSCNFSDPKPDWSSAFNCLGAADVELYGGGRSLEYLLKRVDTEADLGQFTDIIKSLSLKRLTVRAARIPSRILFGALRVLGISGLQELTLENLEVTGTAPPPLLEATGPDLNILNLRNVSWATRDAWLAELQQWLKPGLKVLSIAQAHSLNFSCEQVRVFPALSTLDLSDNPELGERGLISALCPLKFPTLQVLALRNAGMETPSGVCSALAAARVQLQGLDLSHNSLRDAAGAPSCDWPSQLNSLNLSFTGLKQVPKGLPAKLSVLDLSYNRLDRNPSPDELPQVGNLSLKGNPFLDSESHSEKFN
Procedure: as §1

binding to immobilized caspase-11(C254A) on SPR [1]: did not bind detectably
SMILES: CCCCCCCCCCCCCC(=O)OC[C@H](COP(=O)([O-])OCC[N+](C)(C)C)OC(=O)CCCCCCCCCCCCC [DMPC, 1,2-dimyristoyl-sn-glycero-3-phosphocholine]
TNFα release (DCs): not affected | IL-1β release (bone marrow derived DCs): unable to elicit IL-1β release

SMILES: CCCCCCCCCCCCCCCC(=O)OC[C@H](COP(=O)([O-])OCC[N+](C)(C)C)OC(=O)CCCC(=O)/C=C/C(=O)O [KOdiA-PC, 1-(Palmitoyl)-2-(5-keto-6-octene-dioyl) phosphatidylcholine]
TNFα release (DCs): not affected | IL-1β release (bone marrow derived DCs): able to elicit IL-1β secretion | inflammasome activation (inflammasome in DCs): activated the inflammasome in DCs

SMILES: CCN(CC)CCCC(C)Nc1ccnc2cc(Cl)ccc12 (stereo not drawn) [chloroquine]
IL-1β release from DCs (bone marrow derived DCs; chloroquine pre-treatment, LPS-primed, oxPAPC-treated): promoted slightly more release of IL-1β

SMILES: C[C@@H]1C[C@@H]([C@H](O)CC2CC(=O)NC(=O)C2)C(=O)[C@@H](C)C1 [cycloheximide]
TLR4 internalization or dimerization (TLR4): did not affect | extent of oxPAPC- or LPS-induced CD14 endocytosis (CD14): enhanced
